Measured values reported in ChEMBL document CHEMBL1129105, “Synthesis and biological evaluation of N-(1-aziridino)-6-fluoro-quinolone-3-carboxylic acids” (1996).
Values after ≈ are worked out from the molar mass of the structure shown.

Tests used:
Proteus vulgaris = experiment: In vitro antibacterial activity of compound was measured against gram negative Proteus vulgaris XL; format: functional
Escherichia coli [1] = experiment: In vitro antibacterial activity of compound was measured against gram negative Escherichia coli K12; format: functional
Bacteroides fragilis = experiment: In vitro antibacterial activity of compound was measured against gram negative Bacteroides fragilis ATCC 25285; format: functional
Bacillus subtilis = experiment: In vitro antibacterial activity of compound was measured against gram positive Bacillus subtilis ATCC 6633; format: functional
Shigella sonnei = experiment: In vitro antibacterial activity of compound was measured against gram negative Shigella sonnei; format: functional
[2] = test system: Acinetobacter calcoaceticus subsp. anitratus; experiment: In vitro antibacterial activity of compound was measured against gram negative Acinetobacter anitratus 150001; format: functional
Enterococcus faecalis = experiment: In vitro antibacterial activity of compound was measured against gram positive Streptococcus faecalis; format: functional
[3] = test system: Mycobacterium tuberculosis; experiment: In vitro antibacterial activity of compound was measured against gram positive Mycobacterium tuberculosis H37Rv (human); format: functional
Escherichia coli [4] = experiment: In vitro antibacterial activity of compound was measured against gram negative Escherichia coli 6R; format: functional
Klebsiella pneumoniae = experiment: In vitro antibacterial activity of compound was measured against gram negative Klebsiella pneumoniae ATCC 10031; format: functional
Streptococcus pyogenes [5] = experiment: In vitro antibacterial activity of compound was measured against gram positive Streptococcus pyogenes A 118; format: functional
Clostridium perfringens = experiment: In vitro antibacterial activity of compound was measured against gram positive Clostridium perfringens 70500; format: functional
Streptococcus pneumoniae = experiment: In vitro antibacterial activity of compound was measured against gram positive Streptococcus pneumoniae; format: functional
Staphylococcus aureus [6] = experiment: In vitro antibacterial activity of compound was measured against gram positive Staphylococcus aureus 1110 pen.rez.; format: functional
Proteus inconstans = experiment: In vitro antibacterial activity of compound was measured against gram negative Proteus inconstans NCTC 8055; format: functional; conditions: Providencia alcalifaciens
Serratia marcescens = experiment: In vitro antibacterial activity of compound was measured against gram negative Serratia marcescens; format: functional
Streptococcus pyogenes [7] = experiment: In vitro antibacterial activity of compound was measured against gram positive Streptococcus pyogenes A 115 ROBB; format: functional
Staphylococcus aureus [8] = experiment: In vitro antibacterial activity of compound was measured against gram positive Staphylococcus aureus SMITH; format: functional
[9] = test system: Mycobacterium tuberculosis; experiment: In vitro antibacterial activity of compound was measured against gram positive Mycobacterium tuberculosis Ravenel(bovin); format: functional
[10] = test system: Bordetella bronchiseptica; experiment: In vitro antibacterial activity of compound was measured against gram negative Bordetella bronchiseptica ATCC 4617; format: functional
Alcaligenes faecalis = experiment: In vitro antibacterial activity of compound was measured against gram negative Alcaligenes faecalis 140001; format: functional
Pseudomonas aeruginosa = experiment: In vitro antibacterial activity of compound was measured against gram negative Pseudomonas pyocyanea NCTC 10490; format: functional, pseudomona pyocyanea
Salmonella typhimurium = experiment: In vitro antibacterial activity of compound was measured against gram negative Salmonella Typhimurium 51; format: functional, Salmonella enterica subsp. enterica serovar Typhimurium; conditions: Salmonella enterica

Compound	MIC (Proteus vulgaris)	MIC (Escherichia coli [1])	MIC (Bacteroides fragilis)	MIC (Bacillus subtilis)	MIC (Shigella sonnei)	MIC [2]	MIC (Enterococcus faecalis)	MIC [3]	MIC (Klebsiella pneumoniae)	MIC (Streptococcus pyogenes [5])	MIC (Streptococcus pneumoniae)	MIC (Staphylococcus aureus [6])	MIC (Proteus inconstans)	MIC (Serratia marcescens)	MIC (Streptococcus pyogenes [7])	MIC (Staphylococcus aureus [8])	MIC [9]	MIC [10]	MIC (Alcaligenes faecalis)	MIC (Salmonella typhimurium)	other results
CN1CCN(c2c(F)cc3c(=O)c(C(=O)O)cn(N4CC4c4cccc(C(F)(F)F)c4)c3c2F)CC1 (stereo unspecified)	100 µg/mL (≈ 197 µM)	50 µg/mL (≈ 98.3 µM)	50 µg/mL (≈ 98.3 µM)	50 µg/mL (≈ 98.3 µM)	12.5 µg/mL (≈ 24.6 µM)	100 µg/mL (≈ 197 µM)	50 µg/mL (≈ 98.3 µM)	100 µg/mL (≈ 197 µM)	12.5 µg/mL (≈ 24.6 µM)	100 µg/mL (≈ 197 µM)	25 µg/mL (≈ 49.2 µM)	50 µg/mL (≈ 98.3 µM)	100 µg/mL (≈ 197 µM)	100 µg/mL (≈ 197 µM)	100 µg/mL (≈ 197 µM)	25 µg/mL (≈ 49.2 µM)	50 µg/mL (≈ 98.3 µM)	100 µg/mL (≈ 197 µM)	100 µg/mL (≈ 197 µM)	50 µg/mL (≈ 98.3 µM)	MIC (Escherichia coli [4]): 100 µg/mL (≈ 197 µM); MIC (Clostridium perfringens): 100 µg/mL (≈ 197 µM); MIC (Pseudomonas aeruginosa): 100 µg/mL (≈ 197 µM)
CN1CCN(c2cc3c(cc2F)c(=O)c(C(=O)O)cn3N2CC2c2cccc(C(F)(F)F)c2)CC1 (stereo unspecified)	100 µg/mL (≈ 204 µM)	100 µg/mL (≈ 204 µM)	50 µg/mL (≈ 102 µM)	10 µg/mL (≈ 20.4 µM)	25 µg/mL (≈ 51 µM)	100 µg/mL (≈ 204 µM)	25 µg/mL (≈ 51 µM)	12.5 µg/mL (≈ 25.5 µM)	12.5 µg/mL (≈ 25.5 µM)	25 µg/mL (≈ 51 µM)	12.5 µg/mL (≈ 25.5 µM)	25 µg/mL (≈ 51 µM)	100 µg/mL (≈ 204 µM)	100 µg/mL (≈ 204 µM)	50 µg/mL (≈ 102 µM)	25 µg/mL (≈ 51 µM)	100 µg/mL (≈ 204 µM)	50 µg/mL (≈ 102 µM)	100 µg/mL (≈ 204 µM)	100 µg/mL (≈ 204 µM)	MIC (Escherichia coli [4]): 100 µg/mL (≈ 204 µM); MIC (Clostridium perfringens): 12.5 µg/mL (≈ 25.5 µM); MIC (Pseudomonas aeruginosa): 100 µg/mL (≈ 204 µM)
CN1CCN(c2c(F)cc3c(=O)c(C(=O)O)cn(N4CC4c4ccccn4)c3c2F)CC1 (stereo unspecified)	25 µg/mL (≈ 56.6 µM)	50 µg/mL (≈ 113 µM)	> 100 µg/mL	> 100 µg/mL	6.2 µg/mL (≈ 14 µM)	> 100 µg/mL	> 100 µg/mL	100 µg/mL (≈ 227 µM)	12.5 µg/mL (≈ 28.3 µM)	> 100 µg/mL	100 µg/mL (≈ 227 µM)	> 100 µg/mL	50 µg/mL (≈ 113 µM)	25 µg/mL (≈ 56.6 µM)	> 100 µg/mL	> 100 µg/mL	50 µg/mL (≈ 113 µM)	> 100 µg/mL	> 100 µg/mL	25 µg/mL (≈ 56.6 µM)	MIC (Escherichia coli [4]): > 100 µg/mL; MIC (Clostridium perfringens): 100 µg/mL (≈ 227 µM); MIC (Pseudomonas aeruginosa): > 100 µg/mL
CN1CCN(c2cc3c(cc2F)c(=O)c(C(=O)O)cn3N2CC2c2ccccc2)CC1 (stereo unspecified)	50 µg/mL (≈ 118 µM)	50 µg/mL (≈ 118 µM)	6.2 µg/mL (≈ 14.7 µM)	6.2 µg/mL (≈ 14.7 µM)	6.2 µg/mL (≈ 14.7 µM)	50 µg/mL (≈ 118 µM)	25 µg/mL (≈ 59.2 µM)	6.2 µg/mL (≈ 14.7 µM)	3.1 µg/mL (≈ 7.34 µM)	10 µg/mL (≈ 23.7 µM)	5 µg/mL (≈ 11.8 µM)	25 µg/mL (≈ 59.2 µM)	100 µg/mL (≈ 237 µM)	100 µg/mL (≈ 237 µM)	10 µg/mL (≈ 23.7 µM)	12.5 µg/mL (≈ 29.6 µM)	3.1 µg/mL (≈ 7.34 µM)	6.2 µg/mL (≈ 14.7 µM)	100 µg/mL (≈ 237 µM)	50 µg/mL (≈ 118 µM)	MIC (Escherichia coli [4]): 100 µg/mL (≈ 237 µM); MIC (Clostridium perfringens): 6.2 µg/mL (≈ 14.7 µM); MIC (Pseudomonas aeruginosa): 100 µg/mL (≈ 237 µM)
O=C(O)c1cn(C2CC2)c2cc(N3CCNCC3)c(F)cc2c1=O [CIPROFLOXACIN]	0.008 µg/mL (≈ 0.0241 µM)	–	6.2 µg/mL (≈ 18.7 µM)	0.03 µg/mL (≈ 0.0905 µM)	0.015 µg/mL (≈ 0.0453 µM)	0.25 µg/mL (≈ 0.754 µM)	1 µg/mL (≈ 3.02 µM)	0.2 µg/mL (≈ 0.604 µM)	0.008 µg/mL (≈ 0.0241 µM)	1 µg/mL (≈ 3.02 µM)	1 µg/mL (≈ 3.02 µM)	0.25 µg/mL (≈ 0.754 µM)	0.03 µg/mL (≈ 0.0905 µM)	0.03 µg/mL (≈ 0.0905 µM)	1 µg/mL (≈ 3.02 µM)	0.12 µg/mL (≈ 0.362 µM)	0.05 µg/mL (≈ 0.151 µM)	0.25 µg/mL (≈ 0.754 µM)	1 µg/mL (≈ 3.02 µM)	0.015 µg/mL (≈ 0.0453 µM)	–
